{"source": "patent US9399051B2", "about": "“Dipeptidyl peptidase-4 inhibitor” (Kaneka Corporation, priority 2009, dated 2016)", "test_system": "C57BL/6J SPF male mice", "assay": "Oral glucose tolerance test, blood sugar levels in mice", "format": "in vivo", "settings": "mean ± standard error; for Blood sugar level, 0 minutes (pretest value): fasted mice, pretest before administration, in mg/dL (unit assumed); for Blood sugar level, 30 minutes after glucose administration / Blood sugar level, 60 minutes after glucose administration / Blood sugar level, 120 minutes after glucose administration: oral 10 mL/kg (beans 400 mg/mL, sitagliptin 0.1 mg/mL) 30 minutes before oral glucose", "protocol": "The enzyme-treated azuki bean, tora bean and otebo bean prepared in Example 2 and an enzyme-treated defatted soybean prepared using the same method as Example 2 were evaluated for their actual blood sugar lowering effects in the body by using an oral glucose tolerance test. C57BL/6J SPF male mice (Clea Japan, Inc.) were used at age 10 weeks for the study animals. Twenty mice were divided into four groups of 5 mice each. In a single experiment, evaluation was carried out on four groups consisting of a control group (administered distilled water), a positive control group (administered sitagliptin) and two sample groups. Two experiments were carried out and a total of four samples were evaluated.\nBlood samples were collected from the caudal veins of the mice that had been fasting since the previous evening, and blood sugar levels were measured using a simple blood glucose measuring device (GLUTEST ACE®, Sanwa Kagaku Kenkyusho Co., Ltd.) to determine pretest values (0 minutes). 100 mg tablets of sitagliptin (MERCK) were ground with a mortar and suspended in water to a concentration of 0.1 mg/mL as sitagliptin for use as a positive control. Each of the enzyme-treated beans prepared in Example 2 (or in accordance with the method thereof) was dissolved with distilled water to a concentration of 400 mg/mL for use as an administration sample. Distilled water (control group), the sitagliptin suspension (positive control group) or the enzyme-treated bean aqueous solution (sample group) was administered orally at 10 mL/kg of body weight. A 40% aqueous glucose solution was administered orally at 5 mL/kg of body weight 30 minutes after administering the distilled water, sitagliptin suspension, or sample. Blood samples were collected from the caudal veins of the mice at, 30, 60 and 120 minutes after the oral administration of glucose, followed by measurement of these blood sugar levels in the same manner as that used for measurement of pretest values."}
{"smiles": "N[C@@H](CC(=O)N1CCn2c(nnc2C(F)(F)F)C1)Cc1cc(F)c(F)cc1F", "note": "[Sitagliptin, sitagliptin]", "values": [{"measurement": "Blood sugar level, 0 minutes (pretest value)", "setting": "Experiment 1", "value": "82.4 ± 7.0"}, {"measurement": "Blood sugar level, 30 minutes after glucose administration", "setting": "Experiment 1", "value": "270.6 ± 24.2"}, {"measurement": "Blood sugar level, 60 minutes after glucose administration", "setting": "Experiment 1", "value": "185.4 ± 16.2"}, {"measurement": "Blood sugar level, 120 minutes after glucose administration", "setting": "Experiment 1", "value": "110.2 ± 12.3"}, {"measurement": "Blood sugar level, 0 minutes (pretest value)", "setting": "Experiment 2", "value": "72.0 ± 4.7"}, {"measurement": "Blood sugar level, 30 minutes after glucose administration", "setting": "Experiment 2", "value": "215.4 ± 8.5"}, {"measurement": "Blood sugar level, 60 minutes after glucose administration", "setting": "Experiment 2", "value": "145.0 ± 8.9"}, {"measurement": "Blood sugar level, 120 minutes after glucose administration", "setting": "Experiment 2", "value": "93.6 ± 8.7"}]}
